Reference: the supplement of paper PMC10331698
± gives the standard deviation of the averaged measurements.

Experiments:
Assay in all cases: level (log10 ratio to DMSO vehicle control); higher = higher biomarker level / cell amount than vehicle control
[1] = compound: C=C(C)C(=O)OCC(F)(F)C(F)(F)C(F)(F)F [2,2,3,3,4,4,4-Heptafluorobutyl methacrylate]; conditions: in DMSO
Method: (§1)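 BioMAP Diversity Plus panel of 12 human primary cell co-culture systems (3C, 4H, LPS, SAg, BT, BF4T, BE3C, CASM3C, HDF3CGF, KF3CT, MyoF, Mphg). Compounds were added 1 h before stimulation and left for 24 h (MyoF 48 h; BT 72 h for soluble read-outs or 6 d for IgG). Biomarkers were read by ELISA, cytotoxicity by SRB, PBMC viability and proliferation by Alamar Blue. Each well value was divided by the mean of 8 DMSO control wells on the same plate and log10 transformed; duplicate blinded samples were tested at 4 concentrations.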

[2] = compound: C=CC(=O)OCC(F)(F)C(F)(F)C(F)(F)C(F)(F)COC(=O)C=C [1H,1H,6H,6H-Perfluorohexane-1,6-diol diacrylate]; conditions: 6700 nM; in DMSO
Method: as §1

[3] = compound: FC(F)(I)C(F)(F)C(F)(F)C(F)(F)C(F)(F)C(F)(F)I [1,6-Diiodoperfluorohexane]; conditions: 6700 nM; in DMSO
Method: as §1

[4] = compound: O=C(Cl)C(F)(F)C(F)(F)C(F)(F)C(=O)Cl [Hexafluoroglutaryl chloride]; conditions: in DMSO
Method: as §1

[5] = compound: O=C(O)C(F)(F)C(F)(F)C(F)(F)C(F)(F)C(F)(F)C(F)(F)C(F)(F)F [Ammonium perfluorooctanoate]; conditions: in DMSO
Method: as §1

[6] = compound: O=C(O)C(F)(F)C(F)(F)C(F)(F)C(F)(F)C(F)(F)C(F)(F)C(F)(F)F [Perfluorooctanoic acid]; conditions: in DMSO
Method: as §1

[7] = compound: O=S(=O)(OCC(F)(F)F)C(F)(F)C(F)(F)C(F)(F)C(F)(F)F [2,2,2-Trifluoroethyl perfluorobutanesulfonate]; conditions: in DMSO
Method: as §1

[8] = compound: OCCC(F)(F)C(F)(F)C(F)(F)C(F)(F)C(F)(F)C(F)(F)C(F)(F)C(F)(F)F [8:2 Fluorotelomer alcohol]; conditions: 6700 nM; in DMSO
Method: as §1

| Test System | level (log10) ([1]; 6700 nM) | level (log10) ([1]; 20000 nM) | level (log10) ([1]; 60000 nM) | level (log10) [2] | level (log10) [3] | level (log10) ([4]; 6700 nM) | level (log10) ([4]; 20000 nM) | level (log10) ([4]; 60000 nM) | level (log10) ([5]; 6700 nM) | level (log10) ([5]; 20000 nM) | level (log10) ([5]; 60000 nM) | level (log10) ([6]; 6700 nM) | level (log10) ([6]; 20000 nM) | level (log10) ([6]; 60000 nM) | level (log10) ([7]; 6700 nM) | level (log10) ([7]; 20000 nM) | level (log10) ([7]; 60000 nM) | level (log10) [8] |
| --- | --- | --- | --- | --- | --- | --- | --- | --- | --- | --- | --- | --- | --- | --- | --- | --- | --- | --- |
| BT:sIL-2 | 0.0115 ± 0.035 | 0.026 ± 0.082 | -0.0115 ± 0.042 | -0.461 ± 0.18 | -0.059 | -0.0205 ± 0.07 | -0.001 ± 0.1 | 0.0415 ± 0.066 | -0.046 ± 0.0057 | -0.0075 ± 0.074 | -0.006 ± 0.1 | 0.0385 ± 0.11 | 0.039 ± 0.093 | 0.046 ± 0.12 | 0.015 ± 0.0042 | 0.116 ± 0.068 | 0.102 ± 0.014 | 0.001 ± 0.052 |
| BE3C:CXCL8/IL-8 | 0.016 ± 0.042 | -0.008 ± 0.031 | 0.013 ± 0.058 | -0.095 ± 0.013 | 0.011 | 0.0585 ± 0.046 | 0.0345 ± 0.077 | 0.0555 ± 0.083 | 0.043 ± 0.021 | 0.0095 ± 0.039 | -0.066 ± 0.04 | -0.029 ± 0.055 | -0.0165 ± 0.057 | -0.0385 ± 0.0035 | 0.001 ± 0.0071 | -0.0035 ± 0.026 | 0.0225 ± 0.021 | -0.054 ± 0.0042 |
| BT:sIL-6 | 0.035 ± 0.0085 | -0.0015 ± 0.028 | -0.015 ± 0.041 | -0.546 ± 0.044 | -0.018 | -0.0085 ± 0.042 | 0.008 ± 0.055 | -0.033 ± 0.023 | -0.0485 ± 0.0021 | -0.0025 ± 0.037 | -0.034 ± 0.085 | 0.024 ± 0.03 | -0.0095 ± 0.035 | 0.0025 ± 0.0078 | 0.089 ± 0.0085 | 0.158 ± 0.02 | 0.231 ± 0.033 | 0.0665 ± 0.013 |
| 4H:VEGFR2 | -0.0065 ± 0.03 | 0.01 | 0.0085 ± 0.0021 | -0.0605 ± 0.00071 | -0.002 | -0.0325 ± 0.029 | 0.018 ± 0.031 | 0.047 ± 0.035 | -0.0055 ± 0.0035 | -0.009 ± 0.0014 | -0.0455 ± 0.098 | 0.019 ± 0.0099 | 0.0055 ± 0.042 | 0.0205 ± 0.033 | -0.0285 ± 0.03 | 0.0005 ± 0.019 | 0.025 ± 0.0014 | 0.0185 ± 0.0064 |
| 4H:CCL2/MCP-1 | 0.0125 ± 0.012 | -0.007 ± 0.0099 | 0.0335 ± 0.047 | -0.0235 ± 0.019 | -0.03 | -0.022 ± 0.0042 | -0.015 | -0.015 | -0.01 ± 0.0057 | -0.026 ± 0.0085 | -0.0475 ± 0.039 | -0.028 ± 0.0071 | -0.0395 ± 0.013 | -0.0555 ± 0.054 | -0.0345 ± 0.015 | -0.046 ± 0.0014 | -0.0385 ± 0.021 | -0.012 ± 0.014 |
| 4H:SRB | -0.0025 ± 0.005 | -0.005 ± 0.0042 | -0.001 ± 0.0014 | -0.0075 ± 0.0035 | 0.009 | 0 ± 0.0014 | 0.0055 ± 0.015 | 0 ± 0.014 | -0.004 ± 0.011 | -0.0115 ± 0.005 | -0.0245 ± 0.0078 | -0.013 ± 0.0071 | -0.004 ± 0.023 | -0.038 ± 0.031 | -0.0025 ± 0.00071 | -0.0085 ± 0.011 | -0.0015 ± 0.023 | -0.014 ± 0.0042 |
| LPS:sTNF-alpha | 0.005 ± 0.0057 | 0.018 ± 0.052 | 0.0415 ± 0.0092 | 0.0235 ± 0.029 | -0.007 | 0.046 ± 0.023 | 0.033 ± 0.0085 | 0.0465 ± 0.012 | 0.004 ± 0.0085 | 0.001 ± 0.0057 | -0.0135 ± 0.00071 | 0.032 ± 0.0099 | 0.0305 ± 0.021 | 0.0085 ± 0.013 | -0.0075 ± 0.043 | -0.0745 ± 0.076 | -0.225 ± 0.018 | 0.0175 ± 0.03 |
| BT:Secreted IgG | 0.0145 ± 0.036 | 0.029 ± 0.018 | 0.024 ± 0.03 | -0.489 ± 0.25 | 0.019 | 0.012 ± 0.024 | 0.0205 ± 0.012 | 0.0115 ± 0.0035 | 0.032 ± 0.017 | 0.0155 ± 0.037 | -0.019 ± 0.033 | 0.0095 ± 0.026 | -0.005 ± 0.013 | -0.0165 ± 0.0078 | -0.0615 ± 0.043 | -0.0585 ± 0.016 | -0.162 ± 0.058 | -0.0885 ± 0.088 |
| BT:sTNF-alpha | 0.0155 ± 0.043 | 0.023 ± 0.058 | 0.0675 ± 0.0092 | -0.698 ± 0.042 | -0.145 | 0.0505 ± 0.025 | -0.0155 ± 0.037 | 0.104 ± 0.07 | -0.033 ± 0.038 | -0.0095 ± 0.12 | 0.001 ± 0.13 | 0.0755 ± 0.044 | 0.097 ± 0.047 | 0.166 ± 0.11 | 0.11 ± 0.076 | 0.165 ± 0.0021 | 0.189 ± 0.026 | 0.093 ± 0.034 |
| BF4T:uPA | -0.01 | -0.017 ± 0.017 | -0.007 ± 0.0085 | -0.02 ± 0.035 | -0.031 | -0.02 ± 0.048 | -0.004 ± 0.028 | -0.008 ± 0.013 | 0.014 ± 0.0028 | 0.0175 ± 0.0021 | 0.042 ± 0.013 | -0.0245 ± 0.023 | -0.0315 ± 0.016 | -0.0185 ± 0.013 | -0.0085 ± 0.018 | -0.008 ± 0.035 | -0.015 ± 0.023 | -0.047 ± 0.0057 |
| BF4T:CD54/ICAM-1 | -0.0025 ± 0.022 | -0.0085 ± 0.021 | -0.005 ± 0.023 | -0.0575 ± 0.0021 | -0.073 | 0.0065 ± 0.0064 | -0.004 | 0.016 ± 0.017 | -0.009 ± 0.02 | -0.016 ± 0.0014 | -0.0415 ± 0.023 | -0.0115 ± 0.0064 | -0.0025 ± 0.012 | -0.014 ± 0.028 | -0.0115 ± 0.016 | -0.014 ± 0.037 | -0.0295 ± 0.016 | -0.0365 ± 0.015 |
| LPS:CD106/VCAM-1 | -0.0175 ± 0.013 | -0.018 ± 0.0085 | -0.02 ± 0.0085 | -0.048 ± 0.0099 | -0.041 | -0.0235 ± 0.011 | -0.0135 ± 0.012 | -0.011 ± 0.013 | 0.001 ± 0.0042 | 0.0035 ± 0.015 | -0.013 ± 0.0028 | 0.0085 ± 0.0021 | -0.006 ± 0.013 | -0.0165 ± 0.0035 | 0.0055 ± 0.052 | -0.0075 ± 0.015 | -0.076 ± 0.013 | -0.0785 ± 0.042 |
| BE3C:HLA-DR | -0.0005 ± 0.015 | 0.006 ± 0.016 | 0.003 ± 0.035 | -0.048 ± 0.0071 | -0.01 | -0.0075 ± 0.013 | -0.016 ± 0.0057 | -0.007 ± 0.0071 | -0.019 ± 0.0071 | -0.0325 ± 0.012 | -0.068 ± 0.017 | -0.023 ± 0.0042 | -0.0225 ± 0.023 | -0.013 ± 0.034 | -0.001 ± 0.011 | 0.005 ± 0.0085 | -0.011 ± 0.0014 | -0.02 |
| BF4T:Keratin 8/18 | -0.013 ± 0.035 | -0.029 ± 0.014 | -0.0245 ± 0.039 | 0.0065 ± 0.029 | 0.024 | -0.0245 ± 0.053 | -0.018 ± 0.03 | -0.0345 ± 0.035 | 0.009 ± 0.028 | 0.013 ± 0.0057 | 0.017 ± 0.014 | -0.0045 ± 0.012 | -0.0025 ± 0.0092 | 0.0025 ± 0.022 | 0.002 ± 0.016 | -0.0025 ± 0.016 | -0.0335 ± 0.0078 | -0.008 ± 0.0028 |
